From US20060251597A1, “ANTI-ODOR COMPOSITIONS AND THERAPEUTIC USE” (priority 2005, published 2006) come the findings set out here.

Assay [1] is described as follows: anti-odor test, panel by sniffing: N-acetyl-L-cysteine dissolved in a single solvent or liquid ingredient (anhydrous composition). To be noted: 10% N-acetyl-L-cysteine and 90% solvent or liquid ingredient. On the procedure: An anti-odor test was carried out in an anhydrous solvent according to the following example. In a series of test tubes, 4.5 ml of a solvent was added to a test tube such that each test tube comprised a single solvent. The solvents added to the test tubes included water, ethanol, acetone, n-propanol, isopropyl alcohol, propylene glycol, butylenes glycol, benzyl alcohol, ethoxydiglycol, 2-ethyl-1,3-hexanediol. N-Acetyl-L-cysteine (MW 163) 0.5 g was then added and dissolved in each solvent. The test tubes were warmed slightly to enhance dissolution of N-acetyl-L-cysteine crystals. Each test tube contained 10% N-acetyl-L-cysteine and 90% solvent.
An anti-odor test was carried out in an anhydrous composition according to the following example. In a series of test tubes, 4.5 ml of a liquid ingredient was added to a test tube such that each test tube comprised a single liquid ingredient. The liquid ingredients added to a test tube included ethyl glycolate, ethyl-L-lactate, diethyl tartrate, triethyl citrate, tripropyl citrate, ethyl-DL-mandelate, benzyl N-acetyl-prolinate, ethyl N-acetyl-prolinate, propyl N-acetyl-prolinate. N-Acetyl-L-cysteine (MW 163) 0.5 g was then added and dissolved in each liquid ingredient. The test tubes were warmed slightly to enhance dissolution of N-acetyl-L-cysteine crystals. Each test tube contained 10% N-acetyl-L-cysteine and 90% liquid ingredient. The panel judged the anti-odor effect in each test tube.

Assay [2] is described as follows: anti-odor test, three-member panel by sniffing: sulfone or organic amine in composition containing water or alcohol (solution, oil-in-water emulsion). On the procedure: (§1) Initially, a malodor compound such as about 5% by weight was prepared in water solution or in oil-in-water emulsion. A sulfone or organic amine of the present embodiments was added at various concentrations for example, ranging from about 2%, 1%, 0.5% and 0.1% to the formulations containing the malodor substance. The composition containing the malodor substance without a sulfone or organic amine was used as the control.
Methenamine (MW 140) 7.0 g was dissolved in water, and the total volume was 100 ml. This solution contained methenamine 0.5M or 70 mg per ml methenamine.
Piperazine (MW 86) 4.3 g was dissolved in water, and the total volume was 100 ml. This solution contained piperazine 0.5M, or 43 mg per ml piperazine.

A short description of assay [3]: panel sniff tests of solvents, ingredients and amines against thiol malodor (general statements). Particulars: solvent or ingredient, based on the panel tests. On the procedure: as §1
[4] abbreviates: 10% N-acetyl-L-cysteine and 5% anti-odor ingredient in water.
[5] abbreviates: water, 4% N-acetyl-L-cysteine and 1% organic amine (cytidine solution pH 4.3).
The mark [6] stands for this setting: water, N-acetyl-L-cysteine 0.25 M and chlorhexidine 0.1 M.
The mark [7] stands for this setting: water, N-acetyl-L-cysteine 4% and piperazine 0.43%, pH 3.4.
[8] abbreviates: water, N-acetyl-L-cysteine 4% and piperazine 1.1%, pH 5.6.
Where [9] appears, read: water, N-acetyl-L-cysteine 4% and trizma base 0.61%, pH 3.0.
Where [10] appears, read: water, N-acetyl-L-cysteine 4% and trizma base 1.5%, pH 3.5.

Counter-ions that a name gives are not always drawn. Like-named read-outs stand apart in the source and are kept apart here.

In assay [1], `CCOC(=O)C(O)c1ccccc1` (racemic) [ethyl-DL-mandelate] yielded an anti-odor effect of 100%. On to `O=S(=O)(CCO)CCO` [2,2-sulfonyldiethanol], for which, in assay [2], the “malodor as judged by panel” value was “did not have any malodor”.

`Cc1cc(S(=O)(=O)c2ccc(O)c(C)c2)ccc1O` [4,4′-sulfonyl-bis(2-methylphenol)]: the “malodor as judged by panel” value in assay [2] (setting [4]) is “did not have any malodor”.

For the molecule `COC(=O)c1ccc(S(=O)(=O)c2ccc(C(=O)OC)cc2)cc1` [4,4′-sulfonyl-bis(methylbenzoate)], in assay [2] (setting [4]), the “malodor as judged by panel” value is recorded as “did not have any malodor”. Consider `O=S(=O)(c1ccc(O)cc1)c1ccc(O)cc1` [4,4′-sulfonyldiphenol], for which the “malodor as judged by panel” value in assay [2] was “did not have any malodor”. As for `CC(=O)N[C@@H](CS)C(=O)O` [N-Acetyl-L-cysteine, reference compound], the “malodor as judged by panel” value in assay [2] (cream (oil-in-water emulsion), 10% N-acetyl-L-cysteine, no anti-odor ingredient (control)) is “very unpleasant malodor”. For `CCCCO` [N-butyl alcohol], in assay [3], the “prevention of malodor produced by a thiol or similar malodor compounds” value (“prevention of malodor produced” for short) is given as “effectively prevent malodor”. Molecule `CC(C)=O` [acetone] yielded an anti-odor effect in assay [1] of 100%. In the case of `Nc1ncnc2nc[nH]c12` [adenine], in assay [2] (setting [5]), the “effective in preventing malodor” value turned out to be 50% and the “malodor as judged by panel” value is “slight malodor ((b) slight malodor (50% effective))”.

In the case of `CCCCOCCOCCO` [butoxydiglycol], the “prevention of malodor produced” value in assay [3] is reported as “effectively prevent malodor”. On the same count and under the same terms, as for `CCCCOCC(C)O` (stereo not shown) [butoxypropanol], the entry is “effectively prevent malodor”; as for `CCCCOC(C)=O` [butyl acetate], “effectively prevent malodor”. Same read-out and setting: as for `CCCCOC(=O)C(C)O` (stereo not shown) [butyl lactate], the entry is “effectively prevent malodor”; as for `CCCCCCC(CO)CCCC` (stereo not shown) [butyloctanol], “effectively prevent malodor”. On to `[H]/N=C(\N/C(=N/[H])NCCCCCCNC(=N)NC(=N)Nc1ccc(Cl)cc1)Nc1ccc(Cl)cc1` [chlorhexidine base, chlorhexidine, reference compound], for which, in assay [2] (setting [6]), the “effective in preventing odor” value was 50% and the “malodor as judged by panel” value is “slight malodor ((b) slight malodor (50% effective))”. Regarding `C1CCCCC1` [cyclohexane], the “prevention of malodor produced” value in assay [3] is “effectively prevent malodor”.

Turning to `Nc1cc[nH]c(=O)n1` [cytosine], in assay [2] (setting [5]), the “effective in preventing malodor” value was 50% and the “malodor as judged by panel” value is reported as “slight malodor ((b) slight malodor (50% effective))”. In the case of `CCCCOC(=O)CCCCC(=O)OCCCC` [dibutyl adipate], the “prevention of malodor produced” value in assay [3] is recorded as “effectively prevent malodor”. Same read-out and setting: with `CC(C)COC(=O)CCCCC(=O)OCC(C)C` [diisobutyl adipate] the entry was “effectively prevent malodor”; with `CC(C)OC(=O)CCCCC(=O)OC(C)C` [diisopropyl adipate], “effectively prevent malodor”. Same read-out and setting: as for `CC(C)OC(=O)C(=O)OC(C)C` [diisopropyl oxalate], the entry is “effectively prevent malodor”. Consider `CC(C)OC(=O)CCCCCCCCC(=O)OC(C)C` [diisopropyl sebacate], for which the “prevention of malodor produced” value in assay [3] was “effectively prevent malodor”. Same read-out and setting: as for `COCCOCCOC` [dimethoxydiglycol], the entry is “effectively prevent malodor”; as for `COC(=O)CCCCC(=O)OC` [dimethyl adipate], “effectively prevent malodor”. For the molecule `CS(C)(=O)=O` [dimethyl sulfone], the “malodor as judged by panel” value is “did not have any malodor” in assay [2] (setting [4]); “very strong malodor” in assay [2] (10% N-acetyl-L-cysteine and 10% dimethyl sulfone in ethanol); “did not have any malodor” in assay [2] (10% N-acetyl-L-cysteine and 10% sulfone in water). The “prevention of malodor produced” value in assay [3] is “effectively prevent malodor”. Consider `CCCCCCCCOC(=O)CCCCC(=O)OCCCCCCCC` [dioctyl adipate], for which the “prevention of malodor produced” value in assay [3] is “effectively prevent malodor”. Still for that read-out and setting: as for `CCCCCCCCOC(=O)CCCCCCCCC(=O)OCCCCCCCC` [dioctyl sebacate], the entry is “effectively prevent malodor”. Take `O=S(=O)(c1ccccc1)c1ccccc1` [diphenylsulfone]: the “malodor as judged by panel” value in assay [2] (setting [4]) is “did not have any malodor”. On to `CCCOC(=O)CCCCC(=O)OCCC` [dipropyl adipate], for which the “prevention of malodor produced” value in assay [3] is recorded as “effectively prevent malodor”. On the same count and under the same terms, with `CCOCCO` [ethoxyethanol] the entry was “effectively prevent malodor”. On to `CCOC(=O)CC(C)=O` [ethyl acetoacetate], for which the “malodor as judged by panel” value in assay [2] (setting [4]) is “did not have any malodor”. Besides, the “prevention of malodor produced” value in assay [3] is on record as “effectively prevent malodor”.

Consider `CCOC(=O)C(C)O` (stereo not shown) [ethyl lactate], for which the “prevention of malodor produced” value in assay [3] is listed as “effectively prevent malodor”.

`Nc1nc2nc[nH]c2c(=O)[nH]1` [guanine]: in assay [2] (setting [5]), the “effective in preventing malodor” value came to 50% and the “malodor as judged by panel” value is “slight malodor ((b) slight malodor (50% effective))”. Consider `Nc1nc2c(ncn2[C@@H]2O[C@H](CO)[C@@H](O)[C@H]2O)c(=O)[nH]1` [guanosine], for which, in assay [2] (setting [5]), the “effective in preventing malodor” value turned out to be 50% and the “malodor as judged by panel” value is reported as “slight malodor ((b) slight malodor (50% effective))”.

As to `CC(C)CC(C)(C)C` [isooctane], in assay [3], the “prevention of malodor produced” value is given as “effectively prevent malodor”.

Regarding `CC(=O)N1CCC[C@H]1C(=O)OC(C)C` [isopropyl N-acetyl-prolinate], in assay [3], the “prevention of malodor produced” value is “effectively prevent malodor”. The same measure, in the same setting: as for `CC(=O)OC(C)C` [isopropyl acetate], the entry is “effectively prevent malodor”; as for `CCCCCCCCCCCCCC(=O)OC(C)C` [isopropyl myristate], “effectively prevent malodor”. As for `C1N2CN3CN1CN(C2)C3` [methenamine, reference compound], in assay [2] (N-acetyl-L-cysteine 2% in oil-in-water emulsion), the “concentration that can completely eliminate the malodor” value is listed as no less than 0.1%. Further, the “malodor as judged by panel” value in assay [2] (cream (oil-in-water emulsion), 10% N-acetyl-L-cysteine and 3% methenamine) is reported as “did not have any malodor”; in assay [2] (water, N-acetyl-L-cysteine 4% and methenamine 0.7%, pH 3.9) it was “did not have any malodor”; in assay [2] (water, N-acetyl-L-cysteine 4% and methenamine 1.8%, pH 5.2) it was “did not have any malodor”. Regarding `CCCCCCCCCCCCCCCCCC` [octadecane], in assay [3], the “prevention of malodor produced” value was “effectively prevent malodor”. Turning to `CCCCCCCCO` [octanol], in assay [3], the “prevention of malodor produced” value is “effectively prevent malodor”. Still for that read-out and setting: as for `CCCCCCCCOC(=O)c1ccccc1` [octyl benzoate], the entry is “effectively prevent malodor”.

Turning to `CCCCCCCC/C=C\CCCCCCCCO` [oleyl alcohol], the “prevention of malodor produced” value in assay [3] was “effectively prevent malodor”. Still for that read-out and setting: with `CCCCCCCC/C=C\CCCCCCCCOC(=O)C(C)O` (stereo not shown) [oleyl lactate] the entry was “effectively prevent malodor”. For `C1CNCCN1` [piperazine, reference compound], in assay [2] (setting [7]), the “effective in preventing odor” value amounted to 50% and the “malodor as judged by panel” value was “slight malodor ((b) slight malodor (50% effective))”. In addition, in assay [2] (setting [8]), the “effective in preventing odor” value worked out at 50% and the “malodor as judged by panel” value was “slight malodor ((b) slight malodor (50% effective))”. As to `CC(C)OC(=O)CC(O)(CC(=O)OC(C)C)C(=O)OC(C)C` [triisopropyl citrate], the “prevention of malodor produced” value in assay [3] was “effectively prevent malodor”. Same read-out and setting: with cycloethoxymethicone the entry was “effectively prevent malodor”. Still for that read-out and setting: with cyclomethicone the entry was “effectively prevent malodor”. As to “tris(hydroxymethyl)aminomethane [trizma base]”, in assay [2] (setting [9]), the “effective in preventing odor” value is listed as 50% and the “malodor as judged by panel” value is listed as “slight malodor ((b) slight malodor (50% effective))”. Also, in assay [2] (setting [10]), the “effective in preventing odor” value was 50% and the “malodor as judged by panel” value is “slight malodor ((b) slight malodor (50% effective))”.
